Values of other authors as cited in patent publication US20200246411A1, “ANTI-DIARRHOEAL HERBAL COMPOSITIONS” (SRH NUTRITION LLP, priority 2017, published 2020).

settings: conventional drug use

| Structure (SMILES) | disadvantages / adverse reactions |
| --- | --- |
| [Bi] [Bismuth] | Causes adverse reactions (dizziness, cephalea, constipation, dark stools, |
| COc1ccc2c3c1O[C@H]1[C@@H](O)C=C[C@H]4[C@@H](C2)N(C)CC[C@@]341 [Codeine] | Produces secondary effects such as nausea, dizziness and acts against |
| CCOC(=O)C1(c2ccccc2)CCN(CCC(C#N)(c2ccccc2)c2ccccc2)CC1 [Diphenoxylate] | Therapeutic doses induce adverse reactions in the CNS (confusion, |
| CN(C)C(=O)C(CCN1CCC(O)(c2ccc(Cl)cc2)CC1)(c1ccccc1)c1ccccc1 [Loperamide] | Frequent adverse reactions induced are hypersensibility reactions |
| CC(=O)SCC(Cc1ccccc1)C(=O)NCC(=O)OCc1ccccc1 (centres unmarked) [Racecadotril] | Cause some adverse reactions such as hypokalemia, bronchospasm, |
